Common to all, as to type: cell-based, Human
Assay [1] deals with Hep3B2 (FGFR3/4+++). The experiment in a line: In vitro growth inhibition of Hep3B2 tumor cells (MTT/CCK8). As to conditions: Homo sapiens, Hep3B, read-out: IC50 Hep3B2 (FGFR3/4+++). The text has this: (§1) Tumor cell lines are an effective model for studying in vitro tumor growth inhibition. In the present invention, a representative tumor cell line was selected to determine the cell growth inhibition activity of the present compound. All cell lines used were from ATCC, DSMZ, and cell banks of the Chinese Academy of Sciences. Cell culture conditions and methods were in accordance with the requirements of each cell line. Cells were subcultured in vitro for no more than 3 generations each time, and as required, single-clone purification and identification of cell lines could be carried out.
(§2) The cell culture media used were RPMI1640 (Gibco), DMEM (Gibco), MEM (Gibco), L15 (Gibco), IMDM (Gibco), McCOY'S5A, and William's (Gibco). 5-20% fetal bovine serum (Gibco), 1% double antibiotic, 2 mM glutamine, or 1 mM sodium pyruvate were added. The names, species, major gene characteristics, culture media and cell sources of the cell lines used are shown in table 1, wherein “amp” refers to gene amplification. “+++” refers to gene overexpression. The main genetic characteristics of cells were obtained from the COSMIC Cell Lines Project and related research papers, respectively.
(§3) Adherent cells were digested with 0.25% trypsin-EDTA (Gibco). Suspension culture cells were collected by centrifugation (1700 rpm, 3 minutes). The supernatant was discarded and the cells were counted. According to each cell growth cycle, different concentrations of cells were prepared (5˜10×10^4 cells per ml), and inoculated to 96-well plates (Corning), with 100 μl per well, and incubated overnight at 37° C., 5% CO2. The next day, the test compound was added to the cultured cells (2 wells in parallel). The final concentration of the solvent was less than 1/1,000. The cells were further cultured for 3 to 5 days and assayed by MTT.
(§4) The compound was stored at a concentration of 10 mM at −20° C. and diluted to 2- or 10-fold series prior to use. BGJ398 and AC220 were synthesized according to the methods of WO2006420A1 and US2007232604A1, respectively.
(§5) The adherent cells were taken out from the cell culture medium, and immediately added to a freshly prepared complete medium containing 10% CCK8 (5% FBS), 100 ul per hole. The suspended cells were directly added to a CCK8 reagent until reaching a final concentration of 10% and cultured for 1 to 4 hours.
(§6) T=optical density of drug-treated cell wells−optical density of blank control wells; T0=optical density of cell wells before drug treatment−optical density of blank control wells; C=optical density of solvent control wells−optical density of blank control wells. […] The experiments were repeated 1 to 3 times and a statistical analysis of data was conducted.

Assay [2] deals with MOLM-13 (FLT3-ITD). The experiment in a line: In vitro growth inhibition of MOLM-13 tumor cells (MTT/CCK8). As to conditions: Homo sapiens.
Assay [3] has as its system Kasumi-1 (KIT N822K). Put plainly: In vitro growth inhibition of Kasumi-1 tumor cells (MTT/CCK8). Particulars: Homo sapiens.
Description: as §1, §2, §3, §4, §5, §6

In assay [4] the test system is KATO III (FGFR2 amp). Put plainly: In vitro growth inhibition of KATO III tumor cells (MTT/CCK8). Particulars: Homo sapiens, KATO III, read-out: IC50 KATO III (FGFR2 amp).
Assay [5] concerns H1581 (FGFR1 amp). The experiment in a line: In vitro growth inhibition of H1581 tumor cells (MTT/CCK8). As to conditions: Homo sapiens.
Assay [6] deals with Karpas 299 (NPM-ALK). Put plainly: In vitro growth inhibition of Karpas 299 tumor cells (MTT/CCK8). Particulars: Homo sapiens.
Description: as §1, §2, §3, §4, §5, §6

In assay [7] the test system is H1703 (PDGFRa amp). Put plainly: In vitro growth inhibition of H1703 tumor cells (MTT/CCK8). As to conditions: Homo sapiens.
Description: as §1, §2, §3, §4, §5, §6

Assay [8] has as its system KCL-22 (BCR-ABL). Put plainly: In vitro growth inhibition of KCL-22 tumor cells (MTT/CCK8). As to conditions: Homo sapiens.
Description: as §1, §2, §3, §4, §5, §6

Setting [9] is: in vitro growth inhibition (or induction of apoptosis), cells cultured 3 to 5 days, MTT (CCK8).
[10] abbreviates: MOLM-13, in vitro growth inhibition (or induction of apoptosis), cells cultured 3 to 5 days, MTT (CCK8), read-out: IC50 MOLM-13 (FLT3-ITD).
The mark [11] stands for this setting: Kasumi 1, in vitro growth inhibition (or induction of apoptosis), cells cultured 3 to 5 days, MTT (CCK8), read-out: IC50 Kasumi-1 (KIT N822K).
Where [12] appears, read: NCI-H1581, in vitro growth inhibition (or induction of apoptosis), cells cultured 3 to 5 days, MTT (CCK8), read-out: IC50 H1581 (FGFR1 amp).
[13] abbreviates: KARPAS-299, in vitro growth inhibition (or induction of apoptosis), cells cultured 3 to 5 days, MTT (CCK8), read-out: IC50 Karpas 299 (NPM-ALK).
[14] abbreviates: NCI-H1703, in vitro growth inhibition (or induction of apoptosis), cells cultured 3 to 5 days, MTT (CCK8), read-out: IC50 H1703 (PDGFRa amp).
The mark [15] stands for this setting: KCL-22, in vitro growth inhibition (or induction of apoptosis), cells cultured 3 to 5 days, MTT (CCK8), read-out: IC50 KCL-22 (BCR-ABL).

SMILES strings stand for the structures. Read-outs that look alike come from different tables or passages of the source.

Turning to `CCn1nc(C(C)(C)C)cc1NC(=O)Nc1ccc(Oc2ccnc3cc(OC)c(C(N)=O)cc23)cc1Cl` [Compound 27, 4-{4-[3-(5-tert-butyl-2-ethyl-2H-pyrazol-3-yl)-ureido]-3-chloro-phenoxy}-7-methoxyquinolin-6-carboxamide], the IC50 in assay [1] (setting [9]) stood at 11.6 nM; in assay [2] (setting [10]), 3.92 nM; in assay [3] (setting [11]) it was 8.44 nM; in assay [4] (setting [9]), 0.12 nM; in assay [5] (setting [12]), 9.03 nM; in assay [6] (setting [13]) it was 351 nM. For the same compound, the figures for the IC50 in assay [7] (setting [14]) and in assay [8] (setting [15]) were 9.2 nM and 9.23 nM, respectively.
`CCN1CCN(c2ccc(Nc3cc(NC(=O)Nc4ccc(Oc5ccnc6cc(OC)c(C(N)=O)cc56)c(Cl)c4Cl)ncn3)cc2)CC1` [Compound 71]: the IC50 in assay [1] (setting [9]), in assay [2] (setting [10]), in assay [3] (setting [11]), in assay [4] (setting [9]), in assay [5] (setting [12]) and in assay [6] (setting [13]) was more than 1000 nM throughout. Besides, the IC50 in assay [7] (setting [14]) is more than 1000 nM; in assay [8] (setting [15]), not below 1000 nM.
Regarding `COc1cc2nccc(Oc3ccc(NC(=O)Nc4cc(C5CC5)n[nH]4)c(Cl)c3)c2cc1C(N)=O` [Compound 41, 4-{3-chloro-4-[3-(5-cyclopropyl-2H-pyrazol-3-yl)-ureido]-phenoxy}-7-methoxyquinolin-6-carboxamide], the IC50 in assay [1] (setting [9]) is 514 nM; in assay [2] (setting [10]) it was 134 nM; in assay [3] (setting [11]) it was 736 nM; in assay [4] (setting [9]) it was 40.1 nM; in assay [5] (setting [12]), 450 nM; in assay [6] (setting [13]), more than 1000 nM. The IC50 worked out at 124 nM in assay [7] (setting [14]) and 353 nM in assay [8] (setting [15]).
For the compound `C=CC(=O)n1nc(C(C)(C)C)cc1NC(=O)Nc1ccc(Oc2ccnc3cc(OC)c(C(N)=O)cc23)cc1Cl` [Compound 28, 4-{4-[3-(2-acryloyl-5-tert-butyl-2H-pyrazol-3-yl)-ureido]-3-chloro-phenoxy}-7-methoxyquinolin-6-carboxamide], the IC50 in assay [1] (setting [9]) came out at 24.2 nM; in assay [2] (setting [10]) it was 6.53 nM; in assay [3] (setting [11]), 32.5 nM; in assay [4] (setting [9]), 0.73 nM; in assay [5] (setting [12]) it was 17.4 nM; in assay [6] (setting [13]), 698 nM. In addition, the figures for the IC50 in assay [7] (setting [14]) and in assay [8] (setting [15]) were 17.1 nM and 25.1 nM, respectively.
As to `COc1cc2nccc(Nc3ccc(NC(=O)Nc4cc(C(C)(C)C)on4)cc3C)c2cc1C(N)=O` [Compound 99, 4-{4-[3-(5-tert-butyl-isoxazol-3-yl)-ureido]-2-methyl-phenylamino}-7-methoxy-quinolin-6-carboxamide], the IC50 in assay [1] (setting [9]) was 862 nM; in assay [2] (setting [10]) it was 3.41 nM; in assay [3] (setting [11]) it was 355 nM; in assay [4] (setting [9]), 37.8 nM; in assay [5] (setting [12]), 294 nM; in assay [6] (setting [13]) it was more than 1000 nM. The IC50 is 128 nM in assay [7] (setting [14]) and 264 nM in assay [8] (setting [15]).
As for `COc1cc2nccc(Oc3ccc(NC(=O)Nc4cc(C(C)(C)C)n[nH]4)cc3C)c2cc1NC(C)=O` [Compound 103, N-(4-{4-[3-(5-tert-butyl-2H-pyrazol-3-yl)-ureido]-2-methyl-phenoxy}-7-methoxy-quinolin-6-yl)-acetamide], the IC50 in assay [1] (setting [9]) was 191 nM; in assay [2] (setting [10]) it was 0.15 nM; in assay [3] (setting [11]), 14.6 nM; in assay [4] (setting [9]), 4.17 nM; in assay [5] (setting [12]) it was 24.2 nM; in assay [6] (setting [13]), 350 nM. Moreover, the IC50 in assay [7] (setting [14]) is 86.7 nM; in assay [8] (setting [15]), 12.1 nM.
For the compound `CNC(=O)c1cc2c(Oc3ccc(NC(=O)Nc4cc(C(C)(C)C)n[nH]4)c(Cl)c3Cl)ccnc2cc1OC` [Compound 56, 4-{4-[3-(5-tert-butyl-2H-pyrazol-3-yl)-ureido]-2,3-dichloro-phenoxy}-7-methoxyquinol in-6-carboxylic acid methylamide], the IC50 in assay [1] (setting [9]) turned out to be 17.6 nM; in assay [2] (setting [10]), 2.87 nM; in assay [3] (setting [11]), 1.07 nM; in assay [4] (setting [9]), 0.28 nM; in assay [5] (setting [12]), 3.66 nM; in assay [6] (setting [13]), 39.2 nM. The IC50 was 18.9 nM in assay [7] (setting [14]) and 1.4 nM in assay [8] (setting [15]).
Turning to `COc1cc2nccc(Oc3ccc(NC(=O)Nc4cc(C(C)(C)C)on4)c(N4CCN(C)CC4)c3)c2cc1C(N)=O` [Compound 10, 4-[4-[3-(5-tert-butyl-isoxazol-3-yl)-ureido]-3-(4-methyl-piperazin-1-yl)-phenoxy]-7-methoxyquinolin-6-carboxamide], the IC50 is more than 1000 nM in assay [1] (setting [9]); more than 1000 nM in assay [2] (setting [10]); 71.9 nM in assay [3] (setting [11]); more than 1000 nM in assay [4] (setting [9]); more than 1000 nM in assay [5] (setting [12]); more than 1000 nM in assay [6] (setting [13]). Also, the IC50 in assay [7] (setting [14]) and in assay [8] (setting [15]) was more than 1000 nM in each case.
`CNC(=O)c1cc2c(Oc3ccc(NC(=O)n4nc(C(C)(C)C)cc4N)c(Cl)c3)ccnc2cc1OC` [Compound 72]: the IC50 worked out at 159 nM in assay [1]; 50.8 nM in assay [2] (MOLM-13, read-out: IC50 MOLM-13 (FLT3-ITD)); 137 nM in assay [3] (Kasumi 1, read-out: IC50 Kasumi-1 (KIT N822K)); 6.18 nM in assay [4]; 165 nM in assay [5] (NCI-H1581, read-out: IC50 H1581 (FGFR1 amp)); 736 nM in assay [6] (KARPAS-299, read-out: IC50 Karpas 299 (NPM-ALK)). The IC50 is 250 nM in assay [7] (NCI-H1703, read-out: IC50 H1703 (PDGFRa amp)) and 117 nM in assay [8] (KCL-22, read-out: IC50 KCL-22 (BCR-ABL)).
With `CC(C)Oc1cc2nccc(Oc3ccc(NC(=O)Nc4cc(C(C)(C)C)n[nH]4)c(Cl)c3)c2cc1C(N)=O` [Compound 43, 4-{4-[3-(5-tert-butyl-2H-pyrazol-3-yl)-ureido]-3-chloro-phenoxy}-7-isopropoxy-quinolin-6-carboxamide], the IC50 in assay [1] (setting [9]) stood at 64.3 nM; in assay [2] (setting [10]) it was 51.5 nM; in assay [3] (setting [11]), 149 nM; in assay [4] (setting [9]) it was 5.69 nM; in assay [5] (setting [12]) it was 38.5 nM; in assay [6] (setting [13]) it was 558 nM. Further, the IC50 in assay [7] (setting [14]) is 37.2 nM; in assay [8] (setting [15]) it was 102 nM.
For the compound `COCCN1CCN(CCCOc2cc3nccc(Oc4ccc(NC(=O)Nc5cc(C(C)(C)C)n[nH]5)c(Cl)c4)c3cc2C(N)=O)CC1` [Compound 85, 4-{4-[3-(5-tert-butyl-2H-pyrazol-3-yl)-ureido]-3-chloro-phenoxy}-7-{3-[4-(2-methoxy-ethyl)-piperazin-1-yl]-propoxy}-quinolin-6-carboxamide], the IC50 worked out at 16.8 nM in assay [1] (setting [9]); 2.83 nM in assay [2] (setting [10]); 6.49 nM in assay [3] (setting [11]); 1.92 nM in assay [4] (setting [9]); 14.2 nM in assay [5] (setting [12]); 263 nM in assay [6] (setting [13]). Moreover, the IC50 in assay [7] (setting [14]) came to 14 nM; in assay [8] (setting [15]) it was 33.1 nM.

For the origin of these results see patent publication US10800741B2 (ANCUREALL PHARMACEUTICAL (SHANGHAI) CO., LTD., priority 2017, dated 2020).
